Data taken from patent US12617779B2, “Self degradation-type CDK9 inhibitor prodrug and liposome encapsulating same” (Sumitomo Pharma Co., Ltd., priority 2021, dated 2026).

Assays:
[1] = Liposome encapsulation test, remote loading method (Experimental Example 4); format: physicochemical;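 on Encapsulation efficiency: encapsulated compound as percent of compound amount introduced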;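 on Encapsulation rate: encapsulated compound as percent of compound in liposome solution after insolubles removed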
Procedure: For Example 1, Example 2, Example 3, Example 4, Example 5, Example 6, Example 7, Example 8, Example 9, Example 10, Example 11, Example 12, Example 13, Example 14, Example 15, Example 16, Example 17 and Alvocidib, an encapsulation test in liposomes was performed using a remote loading method.
<Liposome Encapsulation Test of Example 1, Example 2, Example 5, Example 6, Example 9, Example 10, Example 11, Example 12, Example 13, Example 14, Example 15, and Example 16>
Hydrogenated soybean phosphatidylcholine (COATSOME NC-21E, manufactured by NOF CORPORATION, 7.77 g), cholesterol (manufactured by Sigma, 2.78 g) and distearoylphosphatidylethanolamine-methoxypolyethylene glycol 2000 (SUNBRIGHT DSPE-020CN, manufactured by NOF CORPORATION, 2.47 g) were dissolved in tert-butyl alcohol (720 mL) warmed to 65° C. The solution was placed in an eggplant flask and frozen in a dry ice-acetone bath, and then the tert-butyl alcohol was removed by evaporation under reduced pressure to give a lipid mixture.
To the above lipid mixture was added a 250 mM ammonium sulfate solution (240 mL), and the mixture was warmed to 65° C., and dispersed by a homogenizer (ULTRA-TURRAX, manufactured by IKA) to give a crude liposome dispersion. Then, the crude liposome dispersion was dispersed by a high pressure homogenizer (Nano-Mizer NM2, manufactured by YOSHIDA KIKAI CO., LTD.) at a pressure of 100 MPa to give liposomes with an average particle size (Z-average) of about 80 nm. The liposome outer solution was replaced with 10 mM L-histidine/10% sucrose solution (pH 6.5) using a dialysis cassette (Slide-A-Lyzer G2 Dialysis Cassettes 20K MWCO, manufactured by Thermo Scientific) to give an empty liposome solution. The solution was filtered through a 0.22 μm membrane filter, and a 10 mM L-histidine/10% sucrose solution (pH 6.5) was added thereto to adjust the total lipid concentration to 50 mM (50 μmol/mL). The lipid concentration was determined by quantitatively analyzing cholesterol using HPLC and calculating the total lipid concentration from the lipid mixing ratio. The amount for the above adjustment was increased or decreased as appropriate.
The compound (10 mg) was weighed, and the empty liposome solution (1 mL) with a total lipid concentration of 50 mM was added thereto. The solution was adjusted to pH 5 to 6 with 1 mol/L hydrochloric acid or 1 mol/L aqueous sodium hydroxide solution as necessary, warmed in a 65° C. water bath for 2 to 3 minutes, and ice-cooled. The mixture was centrifuged at 15,000×g for 5 minutes to precipitate and remove insoluble substances.
The liposome solution (100 μL) after removing insoluble substances was taken on an ultrafiltration filter (Amicon Ultra, 100K, 0.5 mL, manufactured by Merck) and centrifuged at 4° C., 15,000×g for 10 minutes. The compound concentrations in the liposome solution after removing insoluble substances and in the filtrate after ultrafiltration were determined by HPLC, and the encapsulation rate, encapsulation efficiency, and encapsulated compound content per 50 μmol of lipid were calculated by the following formula.
The measurement conditions for HPLC are as follows.
An empty liposome solution with a total lipid concentration of 75 mM was prepared by the same procedure as for the above example compound group. Each compound was weighed, and the empty liposome solution with a total lipid concentration of 75 mM was added thereto such that the compound concentration became 15 mg/mL. The solution was adjusted to pH 5 to 6 with 1 mol/L hydrochloric acid or 1 mol/L aqueous sodium hydroxide solution, warmed in a 65° C. water bath for 3 minutes, and ice-cooled. Hereafter, the encapsulation rate and encapsulation efficiency were calculated by the same procedure as for the above example compound group. The encapsulated compound content per 50 μmol of lipid was calculated by the following formula.
[formula] <Liposome Encapsulation Test of Example 7, Example 8 and Example 17> […]

[2] = Evaluation of conversion rate to active form in human plasma (Experimental Example 3); format: in vitro ADME; conditions: human, 0.2 μmol/L
Summary of the method: (§1)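 LC-MS/MS (positive ESI) followed the parent and released Alvocidib during 37° C incubation of 0.2 μmol/L compound in human or BALB/c mouse plasma, sampled at 0/30/60 or 0/60/120 min. Remaining parent is expressed versus the 0-min peak; conversion versus a 0.2 μmol/L Alvocidib standard.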

[3] = Evaluation of conversion rate to active form in buffer solution (Experimental Example 1); format: physicochemical; conditions: for Conversion to Alvocidib at pH 7.4: pH 7.4, 37° C., up to 3 hours
Summary of the method: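 Conversion to Alvocidib and loss of parent were followed by HPLC over 3 h (samples at 0, 0.5, 1, 2, 3 h). Incubations used 25 umol/L compound at 37 °C across pH 5.0–7.4, in 50 mM citrate below pH 6.0 and 50 mM phosphate from pH 6.0 upward.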

[4] = Evaluation of conversion rate to active form in BALB/c mouse plasma (Experimental Example 3); format: in vitro ADME; conditions: BALB/c, mouse, 0.2 μmol/L
Summary of the method: as §1

[5] = Compound concentration when encapsulated 5 mg/mL
[6] = Compound concentration when encapsulated 10 mg/mL

CN1CC[C@H](c2c(O)cc(O)c3c(=O)cc(-c4ccccc4Cl)oc23)[C@H](O)C1.Cl [Alvocidib hydrochloride, 2-(2-chlorophenyl)-5,7-dihydroxy-8-[(3S,4R)-3-hydroxy-1-methylpiperidin-4-yl]-4H-chromen-4-one hydrochloride, reference compound]
Encapsulated compound content per 50 μmol of lipid [1, 5]: 4.8 mg
Encapsulation efficiency [1, 5]: 96.2%
Encapsulation rate [1, 5]: 99.5%
Encapsulation rate [1, 6]: not encapsulated due to gelation
Encapsulation in liposomes ([1]; concentration 5 mg/mL): could be encapsulated in liposomes
Encapsulation in liposomes ([1]; concentration of 10 mg/mL): could not be encapsulated in liposomes

CC(C)[C@H](N)C(=O)O[C@@H]1CN(C)CC[C@@H]1c1c(O)cc(O)c2c(=O)cc(-c3ccccc3Cl)oc12 [Comparative Example 10, reference compound]
Production rate (%) of Alvocidib ([2]; 0 min): 0%
Residual rate (%) of test compound ([2]; 0 min): 100%
Production rate (%) of Alvocidib ([2]; 60 min): 2%
Residual rate (%) of test compound ([2]; 60 min): 104%
Production rate (%) of Alvocidib ([2]; 120 min): 3%
Residual rate (%) of test compound ([2]; 120 min): 105%
Production rate of Alvocidib ([3]; pH5.0, 0 hr): 2.0%
Residual rate ([3]; pH5.0, 0 hr): 93.4%
Production rate of Alvocidib ([3]; pH5.0, 0.5 hr): 2.3%
Residual rate ([3]; pH5.0, 0.5 hr): 93.2%
Production rate of Alvocidib ([3]; pH5.0, 1 hr): 2.7%
Residual rate ([3]; pH5.0, 1 hr): 92.7%
Production rate of Alvocidib ([3]; pH5.0, 2 hr): 3.7%
Residual rate ([3]; pH5.0, 2 hr): 91.4%
Production rate of Alvocidib ([3]; pH5.0, 3 hr): 4.2%
Residual rate ([3]; pH5.0, 3 hr): 91.2%
Production rate of Alvocidib ([3]; pH5.5, 0 hr): 2.0%
Residual rate ([3]; pH5.5, 0 hr): 93.2%
Production rate of Alvocidib ([3]; pH5.5, 0.5 hr): 2.7%
Residual rate ([3]; pH5.5, 0.5 hr): 92.7%
Production rate of Alvocidib ([3]; pH5.5, 1 hr): 3.7%
Residual rate ([3]; pH5.5, 1 hr): 91.7%
Production rate of Alvocidib ([3]; pH5.5, 2 hr): 5.5%
Residual rate ([3]; pH5.5, 2 hr): 89.9%
Production rate of Alvocidib ([3]; pH5.5, 3 hr): 6.8%
Residual rate ([3]; pH5.5, 3 hr): 88.7%
Production rate of Alvocidib ([3]; pH6.0, 0 hr): 2.1%
Residual rate ([3]; pH6.0, 0 hr): 93.1%
Production rate of Alvocidib ([3]; pH6.0, 0.5 hr): 4.4%
Residual rate ([3]; pH6.0, 0.5 hr): 90.7%
Production rate of Alvocidib ([3]; pH6.0, 1 hr): 7.2%
Residual rate ([3]; pH6.0, 1 hr): 88.6%
Production rate of Alvocidib ([3]; pH6.0, 2 hr): 12.8%
Residual rate ([3]; pH6.0, 2 hr): 83.1%
Production rate of Alvocidib ([3]; pH6.0, 3 hr): 16.3%
Residual rate ([3]; pH6.0, 3 hr): 79.7%
Production rate of Alvocidib ([3]; pH6.5, 0 hr): 2.3%
Residual rate ([3]; pH6.5, 0 hr): 93.2%
Production rate of Alvocidib ([3]; pH6.5, 0.5 hr): 5.1%
Residual rate ([3]; pH6.5, 0.5 hr): 90.9%
Production rate of Alvocidib ([3]; pH6.5, 1 hr): 8.8%
Residual rate ([3]; pH6.5, 1 hr): 87.4%
Production rate of Alvocidib ([3]; pH6.5, 2 hr): 15.6%
Residual rate ([3]; pH6.5, 2 hr): 81.1%
Production rate of Alvocidib ([3]; pH6.5, 3 hr): 20.2%
Residual rate ([3]; pH6.5, 3 hr): 76.6%
Production rate of Alvocidib ([3]; pH7.0, 0 hr): 2.1%
Residual rate ([3]; pH7.0, 0 hr): 93.2%
Production rate of Alvocidib ([3]; pH7.0, 0.5 hr): 5.2%
Residual rate ([3]; pH7.0, 0.5 hr): 92.3%
Production rate of Alvocidib ([3]; pH7.0, 1 hr): 8.5%
Residual rate ([3]; pH7.0, 1 hr): 88.2%
Production rate of Alvocidib ([3]; pH7.0, 2 hr): 15.5%
Residual rate ([3]; pH7.0, 2 hr): 81.5%
Production rate of Alvocidib ([3]; pH7.0, 3 hr): 19.5%
Residual rate ([3]; pH7.0, 3 hr): 75.7%
Production rate of Alvocidib ([3]; pH7.4, 0 hr): 2.1%
Residual rate ([3]; pH7.4, 0 hr): 93.2%
Conversion to Alvocidib at pH 7.4 [3]: slowly converted to Alvocidib
Production rate of Alvocidib ([3]; pH7.4, 0.5 hr): 4.6%
Residual rate ([3]; pH7.4, 0.5 hr): 92.2%
Production rate of Alvocidib ([3]; pH7.4, 1 hr): 7.5%
Residual rate ([3]; pH7.4, 1 hr): 89.3%
Production rate of Alvocidib ([3]; pH7.4, 2 hr): 13.3%
Residual rate ([3]; pH7.4, 2 hr): 82.9%
Production rate of Alvocidib ([3]; pH7.4, 3 hr): 17.1%
Residual rate ([3]; pH7.4, 3 hr): 78.4%
Production rate (%) of Alvocidib ([4]; 0 min): 1%
Residual rate (%) of test compound ([4]; 0 min): 100%
Production rate (%) of Alvocidib ([4]; 60 min): 5%
Residual rate (%) of test compound ([4]; 60 min): 84%
Production rate (%) of Alvocidib ([4]; 120 min): 6%
Residual rate (%) of test compound ([4]; 120 min): 89%

CN1CC[C@H](c2c(O)cc(O)c3c(=O)cc(-c4ccccc4Cl)oc23)[C@H](OC(=O)c2ccccc2F)C1 [Comparative Example 12]
Production rate (%) of Alvocidib ([2]; 0 min): 0%
Residual rate (%) of test compound ([2]; 0 min): 100%
Production rate (%) of Alvocidib ([2]; 60 min): 23%
Residual rate (%) of test compound ([2]; 60 min): 74%
Production rate (%) of Alvocidib ([2]; 120 min): 32%
Residual rate (%) of test compound ([2]; 120 min): 58%
Production rate of Alvocidib ([3]; pH7.4, 0 hr): 1.4%
Residual rate ([3]; pH7.4, 0 hr): 98.0%
Conversion to Alvocidib at pH 7.4 [3]: slowly converted to Alvocidib
Production rate of Alvocidib ([3]; pH7.4, 0.5 hr): 1.5%
Residual rate ([3]; pH7.4, 0.5 hr): 97.5%
Production rate of Alvocidib ([3]; pH7.4, 1 hr): 1.6%
Residual rate ([3]; pH7.4, 1 hr): 97.6%
Production rate of Alvocidib ([3]; pH7.4, 2 hr): 1.8%
Residual rate ([3]; pH7.4, 2 hr): 97.6%
Production rate (%) of Alvocidib ([4]; 0 min): 2%
Residual rate (%) of test compound ([4]; 0 min): 100%
Production rate (%) of Alvocidib ([4]; 60 min): 19%
Residual rate (%) of test compound ([4]; 60 min): 85%
Production rate (%) of Alvocidib ([4]; 120 min): 27%
Residual rate (%) of test compound ([4]; 120 min): 76%

CN1CC[C@H](c2c(OC(=O)N(C)C[C@@H]3COCCN3)cc(O)c3c(=O)cc(-c4ccccc4Cl)oc23)[C@H](O)C1 [Example 17, 2-(2-chlorophenyl)-5-hydroxy-8-[(3S,4R)-3-hydroxy-1-methylpiperidin-4-yl]-4-oxo-4H-1-benzopyran-7-yl methyl{[(3R)-morpholin-3-yl]methyl}carbamate]
Encapsulated compound content per 50 μmol of lipid [1, 6]: 2.4 mg
Encapsulation efficiency [1, 6]: 23.8%
Encapsulation rate [1, 6]: 26.5%
